Data taken from PubChem BioAssay (NCI).
Several values for one entry are separate records, joined by “and”; a condition that tells them apart may be missing. Equal entries are not always repeated.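 48-hour exposure; five concentrations; linearly interpolated endpoints. GI50 is the concentration that inhibits growth by half. TGI: total growth inhibition.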

How the values were obtained:
Experiment in all cases: growth of human tumour cells (NCI), 48 h
[1] = test system: CCRF-CEM leukemia
[2] = test system: IGROV1 ovarian
[3] = test system: MOLT-4 leukemia
[4] = test system: OVCAR-4 ovarian
[5] = test system: UACC-62 melanoma
[6] = test system: UO-31 renal
[7] = test system: NCI-H226 lung
[8] = test system: NCI/ADR-RES ovarian
[9] = test system: PC-3 prostate
[10] = test system: BT-549 breast

## COc1ccc(/C=C2\Cc3ccccc3C2=O)cc1OC
[1]
  TGI: > 100 µM
[2]
  TGI: > 100 µM
[3]
  TGI: > 100 µM
[4]
  TGI: > 100 µM
[5]
  TGI: > 100 µM
[6]
  TGI: > 100 µM

## c1ccc2c(CNCCCCCCNCc3cccc4ccccc34)cccc2c1
[1]
  TGI: 9.62 µM
[2]
  TGI: 30.7 µM
[3]
  TGI: 6.46 µM
[7]
  TGI: 31.6 µM
[4]
  TGI: 28.9 µM
[5]
  TGI: 21.6 µM
[6]
  TGI: 23.9 µM

## COC(=O)C[CH](C(=O)OC)[Ge]([CH3])([CH3])[S]c1ccccc1 (centres undefined)
[1]
  GI50: 1.67 µM
  TGI: 6.25 µM
[2]
  GI50: 0.463 µM
  TGI: 2.2 µM
[3]
  GI50: 3.37 µM
  TGI: 18.4 µM
[7]
  GI50: 13.8 µM
  TGI: 35.1 µM
[4]
  GI50: 18.1 µM
  TGI: 72.4 µM
[5]
  GI50: 15.8 µM
  TGI: 36.2 µM
[6]
  GI50: 7.06 µM
  TGI: 21 µM

## COC(=O)c1c[nH]c(=O)[nH]c1=O
[1]
  TGI: > 100 µM
[2]
  TGI: > 100 µM
[3]
  TGI: > 100 µM
[8]
  TGI: > 100 µM
[9]
  TGI: > 100 µM
[5]
  TGI: > 100 µM
[6]
  TGI: > 100 µM

## CN(C)C[C@H]1CC[C@@H](CN(C)C)C1=O
[10]
  TGI: 14.1 µM
[1]
  GI50: 1.23 µM
  TGI: 5.02 µM
[2]
  TGI: 31.6 µM
[3]
  TGI: 4.69 µM
[7]
  TGI: 32.3 µM
[4]
  TGI: 16.3 µM
[9]
  TGI: 15.7 µM
[5]
  TGI: 16.6 µM
[6]
  TGI: 23.1 µM

## COC(=O)/C=C/C(=O)C1C(C(=O)OC)C2(C(=O)OC)CCC1(C(=O)OC)N2 (centres undefined)
[2]
  TGI: > 100 µM
[3]
  TGI: > 100 µM
[4]
  TGI: > 100 µM
[5]
  TGI: > 100 µM
[6]
  TGI: > 100 µM

## C=CN1C(=O)OC(c2ccccc2)C1c1ccccc1 (centres undefined)
[1]
  GI50: > 100 µM
  TGI: > 100 µM
[2]
  GI50: > 100 µM
  TGI: > 100 µM
[3]
  GI50: > 100 µM
  TGI: > 100 µM
[7]
  GI50: > 100 µM
  TGI: > 100 µM
[4]
  GI50: > 100 µM
  TGI: > 100 µM
[5]
  GI50: > 100 µM
  TGI: > 100 µM
[6]
  GI50: > 100 µM
  TGI: > 100 µM

## C=C(CN1CCN(c2ccccc2OC)CC1)c1ccc(C(=O)Nc2ccccc2N)cc1
[10]
  GI50: 7.12 µM
  TGI: 26.9 µM
[2]
  GI50: 9.54 µM
  TGI: 30.6 µM
[8]
  GI50: 0.143 µM
  TGI: 1.56 µM
[4]
  GI50: 3.2 µM
  TGI: 23.6 µM
[9]
  GI50: 9.64 µM
  TGI: > 50 µM
[5]
  GI50: 1.18 µM
  TGI: 6.92 µM
[6]
  GI50: 7.93 µM
  TGI: 16.4 µM

## CC(C)[C@@H]1C=C(c2ccccc2)c2ccccc2C1C(C#N)(C#N)C(C)C (some centres undefined)
[1]
  TGI: > 100 µM
[2]
  TGI: > 100 µM
[3]
  TGI: > 100 µM
[7]
  TGI: > 100 µM
[4]
  TGI: > 100 µM
[5]
  TGI: > 100 µM
[6]
  TGI: > 100 µM

## COc1cc([C@@H]2c3cc4c(cc3[C@@H](NC(=O)c3ccc(N)cc3)C3COC(=O)[C@@H]32)OCO4)cc(OC)c1O (some centres undefined)
[1]
  TGI: 13.1 µM
[2]
  TGI: 20.2 µM
[3]
  TGI: 3.78 µM
[7]
  TGI: 6.91 µM
[4]
  TGI: > 100 µM
[5]
  TGI: 10.9 µM
[6]
  TGI: 31.1 µM

## N#Cc1cccc(NC(=O)c2ccc(C(=O)O)c(C(=O)c3ccc(C(=O)O)c(C(=O)Nc4cccc(C#N)c4)c3)c2)c1
[1]
  TGI: > 100 µM
[2]
  TGI: > 100 µM
[3]
  TGI: > 100 µM
[7]
  TGI: > 100 µM
[4]
  TGI: > 100 µM
[5]
  TGI: > 100 µM
[6]
  TGI: > 100 µM

## Oc1ccc2oc3ncc(Cl)c(-c4ccccc4)c3c2c1
[1]
  GI50: 21.2 µM
  TGI: 63.2 µM
[2]
  GI50: > 100 µM
  TGI: > 100 µM
[3]
  GI50: > 100 µM
  TGI: > 100 µM
[7]
  GI50: > 100 µM
  TGI: > 100 µM
[8]
  GI50: > 100 µM
  TGI: > 100 µM
[4]
  GI50: > 100 µM
  TGI: > 100 µM
[9]
  GI50: > 100 µM
  TGI: > 100 µM
[5]
  GI50: > 100 µM
  TGI: > 100 µM
[6]
  GI50: > 100 µM
  TGI: > 100 µM

## COc1ccc(-c2nn(-c3cccc(Cl)c3)cc2C=C(C#N)C#N)cc1
[10]
  GI50: 1.55 µM
  TGI: 4.05 µM
[1]
  GI50: 1.43 µM
  TGI: 4.76 µM
[2]
  GI50: 2.85 µM
  TGI: 6.29 µM
[3]
  GI50: 2.12 µM
  TGI: 6.12 µM
[7]
  GI50: 2.74 µM
  TGI: 11.8 µM
[8]
  GI50: 2.49 µM
  TGI: 7.17 µM
[4]
  GI50: 2.29 µM
  TGI: 6.48 µM
[5]
  GI50: 2.39 µM
  TGI: 10.6 µM
[6]
  GI50: 2.21 µM
  TGI: 7.88 µM

## CCC1C(C)c2c([nH]c3ccccc23)C2C(=O)N(c3ccccc3)C(=O)C21 (centres undefined)
[1]
  TGI: 71.9 µM
[2]
  TGI: 22.3 µM
[3]
  TGI: 49.3 µM
[4]
  TGI: 38 µM
[5]
  TGI: 21.9 µM

## OCC(O)C(O)c1nn(-c2ccccc2)c2nc3cc(Cl)c(Cl)cc3nc12 (centres undefined)
[1]
  TGI: > 100 µM
[2]
  TGI: 90.7 µM
[3]
  TGI: > 100 µM
[7]
  TGI: 73.6 µM
[4]
  TGI: 93.5 µM
[5]
  TGI: > 100 µM
[6]
  TGI: 63.5 µM

## S=c1nc[nH]c2c1ncn2Cc1ccco1
[10]
  TGI: > 100 µM
[2]
  TGI: > 100 µM
[3]
  TGI: > 100 µM
[7]
  TGI: > 100 µM
[8]
  TGI: > 100 µM
[4]
  TGI: > 100 µM
[9]
  TGI: > 100 µM
[5]
  TGI: > 100 µM
[6]
  TGI: > 100 µM

## Cc1nc(C)c(C(=O)Nc2cccc3c2C(=O)NC3=O)cc1C(=O)Nc1cccc2c1C(=O)NC2=O
[1]
  TGI: > 100 µM
[2]
  TGI: > 100 µM
[3]
  TGI: > 100 µM
[7]
  TGI: > 100 µM
[4]
  TGI: > 100 µM
[5]
  TGI: > 100 µM
[6]
  TGI: > 100 µM

## O=C(CC(=O)N1N=C(c2ccccc2)C(N=Nc2ccc(C(=O)O)cc2)C1=O)Nc1ccc(F)cc1 (centres undefined)
[2]
  TGI: 80.5 µM
[7]
  TGI: 24 µM
[4]
  TGI: > 100 µM
[5]
  TGI: 42.8 µM
[6]
  TGI: 73.4 µM

## CN(C)c1ccc(/C=C2\C[C@H]3[C@@H]4CC=C5C[C@@H](N6CCCC6)CC[C@]5(C)[C@H]4CC[C@]3(C)[C@H]2O)cc1
[10]
  GI50: 17.4 µM
  TGI: 9.72 µM and 53.1 µM
[2]
  GI50: 3.92 µM
  TGI: 2 µM and 8.53 µM
[3]
  GI50: 4.98 µM
[7]
  GI50: 14 µM
[8]
  GI50: 4.01 µM
  TGI: 6.19 µM and 19.9 µM
[4]
  GI50: 2.16 µM
  TGI: 2 µM and 5.96 µM
[9]
  GI50: 2.82 µM
  TGI: 50 µM and 12 µM
[5]
  GI50: 2 µM
  TGI: 1.6 µM and 4.05 µM
[6]
  GI50: 1.96 µM
  TGI: 1.62 µM and 4.25 µM

## CC1=NNC(=NCCN(C)C)C/C1=C/c1ccccc1Cl
[2]
  TGI: > 100 µM
[4]
  TGI: > 100 µM
[5]
  TGI: > 100 µM
[6]
  TGI: > 100 µM

## COC(=O)C1=C(OC)c2cc3c(cc2C(c2cc(OC)c(OC)c(OC)c2)C1C(=O)OC)OCO3 (centres undefined)
[1]
  TGI: > 100 µM
[2]
  TGI: > 100 µM
[3]
  TGI: > 100 µM
[7]
  TGI: > 100 µM
[4]
  TGI: > 100 µM
[5]
  TGI: > 100 µM
[6]
  TGI: > 100 µM

## O=C1C2c3[nH]c4ccccc4c3[C@@H]3CCCCCCCCCCC3C2C(=O)N1c1ccccc1 (some centres undefined)
[2]
  TGI: 43.6 µM
[7]
  TGI: 95 µM
[4]
  TGI: 57.5 µM
[5]
  TGI: 59.2 µM
[6]
  TGI: > 100 µM
